According to patent US20110256241A1, “METHODS AND COMPOSITIONS FOR THE TREATMENT OF CANCER” (TRASLATIONAL CANCER DRUGS PHARMA, S.L., priority 2008, published 2011):
Read-outs that look alike come from different tables or passages of the source.

What was measured:
[1] = tested on: primary cultures of tumours of patients with NSCLC; test: Primary cultures of NSCLC tumours, crystal violet quantification; format: cell-based, human; settings: primary NSCLC tumour cultures, 0-20 μM, 10 days
Experimental: Resected tissues from NSCLC patients were dissociated (Cell dissociation sieve-tissued grinder Kit CD1, SIGMA), and the obtained cells were seeded in 24 well plates (BD, Falcon, Bioscience, San Jose, Calif., USA). […] The final persistent population in each well was quantified by the method of Cristal Violet as previously described (Rodríguez-González, A. et al., Oncogene, 22:8803-8812). […]

[2] = tested on: SW620 cells; test: MTT cytotoxicity, ChoKI and TRAIL
Experimental: For this purpose, cells were seeded in 96 multiwell plates at a density of 1×10^4 cells/well 24 hours before treatment. Cells were treated with different concentrations of RSM-932A (ChoKI) or TRAIL for different times and the cell proliferation was quantified using the MTT [3-(4,5-Dimethylthiazol-2-yl)-2,5-Diphenyltetrazolium Bromide] colorimetric assay.

[3] = tested on: H460 cells; test: Affymetrix gene expression analysis of 5-FU metabolization pathway; format: cell-based, human; set-up: key to RRM2 (Ribonucleotide Reductase) gene expression / TYMS (Thymidylate synthetase) gene expression / DUT (Deoxyuridine triphosphatase) gene expression: Signal Log Ratio, base 2 (1.0 = 2-fold increase, 0 = no change)
Experimental: The RNAs from the biopsies selected were isolated for microarrays and QT-PCR, using RNeasy Mini Kit (QIAGEN, Hilden, Germany) following the instructions of the manufactures. Samples were prepared and the array hybridized according to the Affymetrix GeneChip Expression Analysis Technical Manual. Hybridization to Affymetrix U133plus2 GeneChips (54,614 probe sets, representing 47,000 transcripts), staining, washing and scanning procedures were carried out at the Genomic Facility in the National Center of Biotechnology (Madrid, Spain) as described in www.affymetrix.com (Affymetrix, Santa Clara, Calif.). The Signal Log Ratio estimates the magnitude and direction of change of a transcript. The log scale used is base 2, thus a Signal Log Ratio of 1.0 indicates an increase of the transcript level by 2 fold and −1.0 indicates a decrease by 2 fold. A Signal Log Ratio of zero would indicate no change.
With the aim of further investigating the mechanism of ChoKIs sensitization to the antitumoral effect of 5-FU, a gene expression analysis of the 5-FU-metabolisation pathway was performed in H460 cells treated at different times with MN58b and RSM-932A using affymetrix technology.

[4] = tested on: DLD-1 colon cancer cells; test: QT-PCR validation of 5-FU metabolization pathway genes; format: cell-based, human; set-up: key: DR (Down-regulation); UR (Up-regulation)
Experimental: (§1) 1 μg of RNA was used to generate cDNA using High-Capacity cDNA Archive Kit (Applied Biosystems), and quantitative real-time PCR was carried out in triplicate using the ABI PRISM 7700 Sequence Detector (Applied Biosystems). GAPDH and 18S ribosomal mRNA were amplified as internal controls. Probes used for amplification were from Applied Biosystems as Taqman Gene Expression Assays (ASAH1: HS00602774—M1 Taqman Probe, ASAH2: HS00184096_M1 Taqman Probe and ASAH3: HS00370322_M1 Taqman Probe, DUT: HS00798995_S1 Taqman Probe, TYMS: HS00426591_M1 Taqman Probe, UPP1: HS00427695—M1 Taqman Probe, RRM2: HS00357247_G1 Taqman Probe). The 2-^ΔΔCt method was used (Livak K J., Methods. 2001; 25:402-8) to calculate the relative expression of each gene.

[5] = tested on: HT29 colon cancer cells; test: as above; format: cell-based, human; set-up: key: DR (Down-regulation); UR (Up-regulation)
Experimental: as §1

[6] = tested on: SW62 colon cancer cells; test: as above; format: cell-based, human; set-up: key: DR (Down-regulation); UR (Up-regulation)
Experimental: as §1

[7] = tested on: H460 xenografts; test: NSCLC xenografts, in vivo tumor growth inhibition
Experimental: Indicated cells were resuspended in DMEM just before inoculation (10^6 cells/0.1 ml), and injected subcutaneously in nu/nu immunosuppressed mice. Mice were kept under standard laboratory conditions according to the guidelines of the Spanish Government. When tumours reached a mean volume of 0.1 cm^3, mice were randomized to control and treated groups. Treatments with the antitumoral agents (and vehicle for control mice) were performed i.p. with following the indicated schedules. Tumors were monitored three times a week by measuring the major (D) and minor (d) diameters, and tumour volume was calculated by V=(D*d^2)/2. Statistical analysis of significant changes in tumour growth was calculated using SPSS software v. 13.0.

[8] = tested on: H460 cells; test: Cell proliferation assay (MTT); format: cell-based, human
Experimental: All cell lines used in this study were maintained under standard conditions of temperature (37° C.), humidity (95%), and carbon dioxide (5%). Human primary bronchial epithelial cells, NHBE (BEC) (Cambrex, CC-2541) were grown in BEGM (Bronchial Epithelial cell growth media) BulletKit (Cambrex, CC-3170). Human primary mammary epithelial cells, HMEC (Clonetics, CC-2551) were grown in MEBM medium supplemented with a bullet kit (Clonetics, CC-3150). Epithelial non-small lung cancer cells H460 and H1299, and small cell lung cancer cell lines H510 and H82 were maintained in RPMI supplemented with 10% Fetal Bovine Serum (FBS) (Life Technologies, Grand Island, N.Y.).
(§2) Cells were seeded on 96-well plates (BD, Falcon, Bioscience, San Jose, Calif., USA) at a density of 6000 cells/well, and incubated for 24 h under standard conditions. Then, cells were treated with different concentrations of the ChoK inhibitors (quadruplicates of each concentration) and maintained for 72 hours. […] Absorbance is read at 595 nm in a VersaMax Microplate Reader (Molecular Devices, Sunnyvale, Calif., USA). For sensitization with acid ceramidase inhibitor, cells were pre-treated […] with the correspondent IC50 for NOE before treatment with ChoK inhibitors. NOE (N-Oleoyl ethanolamine) was obtained from Calbiochem (La Jolla, Calif., USA).
Thus, disruption in the levels of acid ceramidase may allow ChoK inhibitors to have a better effect in these cells. To verify this hypothesis, we used the previously characterized acid ceramidase inhibitor, N-Oleoylethanolamine (NOE) (Grijalvo S., Chem Phys Lipids. 2006; 144:69-84), to investigate if the inhibition of acid ceramidase sensitizes tumour cell lines to ChoK inhibitors. To that end, H460 cells were pre-treated with NOE for three hours to inhibit acid ceramidase.
H460 cells were pre-treated with these compounds for three hours to inhibit ceramidases. […] Furthermore, the combined use of ChoK inhibitors and acid ceramidase inhibitors provides a further stronger anticancer activity.

[9] = tested on: H460 MN58R cells; test: Cell proliferation assay (MTT); format: cell-based, human
Experimental: (§3) Cell lines resistant to MN58b and RSM-932A (identified as MN58R and RSM-932A-R, respectively) were generated by prolonged continuous exposure to increasing concentrations of each drug. A parallel control (H460 stock) of the cell line in the absence of the compounds was kept in culture for the same time.
as §2
(§4) To further study the mechanism underlying resistance to ChoK inhibition, as well as the implication of acid ceramidase in this effect, we used the human NSCLC-derived H460 cell line for a set of in vitro experiments. Maintaining this cell line in culture for 9 months with slightly increasing doses cycles of MN58b and a second-generation ChoKα inhibitor, RSM-932A, we established new cell lines with acquired resistance to these ChoKα inhibitors. A control cell line (H460 stock) was also established maintaining H460 in culture for the same time without treatment. Thus, established cells resistant to MN58b (H460 MN58R) and resistant to RSM-932A (H460 RSM-932A-R) were not affected at concentrations where normal H460 cells or control H460stock cells were dramatically affected. […] Furthermore, we found a strong cross-resistance between both ChoK inhibitors as it could be expected due to the similar mechanisms of action of these two antitumoral drugs (Table 9).

[10] = tested on: H460stock cells; test: Cell proliferation assay (MTT); format: cell-based, human
Experimental: as §3, §2, §4

[11] = tested on: H460 RSM-932AR cells; test: Cell proliferation assay (MTT); format: cell-based, human
Experimental: as §3, §2, §4

[12] = tested on: DLD-1 cells; test: Apoptosis detection by flow cytometry, Annexin V & IP; format: cell-based, human; settings: DLD-1, 7 hours treatment
Experimental: Cell death was analysed by flow cytometry using de Aposcreen Annexin V Apoptosis Kit (Southern Biotech) according to manufacturer procedures. Cells were seeded at 4×10^5 cells per well in six-well. Twenty-four hours later, cells were treated with the indicated compounds. Cells were rinsed twice in cold PBS and after removing it cells were resuspended in cold 1× binding buffer to a concentration from 1×10^6 to 1×10^7 cells/mL. 100 μl of these cells were collected in a flow cytometry tube and 10 μl of Annexin V were added. After gently vortexing, tubes were incubated for 15 minutes on ice, protected from light. Without washing, 380 μl of 1× binding buffer were added to each sample prior to 10 μl of propidium iodine. Cells were immediately analysed by flow cytometry.
The synergism observed in vitro was also analysed by flow cytometry using Annexin V & IP staining to distinguish between apoptosis and necrosis or late apoptosis. […] When DLD-1 cells are treated with TRAIL alone there is a 35% of apoptosis. In combination tumour cell death is amplified up to 50%. When DLD-1 are treated with RSM-932A (TCD-717) in combination with TRAIL there is a 55% increase in tumour cell death but mainly the necrotic or late apoptosis population because RSM-932A (TCD-717) has an effect that is faster than MN58. […]

[13] = FIG. 7B, combination given sequentially

CC(=O)O[C@H]1C(=O)[C@@]2(C)[C@H]([C@H](OC(=O)c3ccccc3)[C@]3(O)C[C@H](OC(=O)[C@H](O)[C@@H](NC(=O)c4ccccc4)c4ccccc4)C(C)=C1C3(C)C)[C@]1(OC(C)=O)CO[C@@H]1C[C@@H]2O [Taxol]
RESISTANT (number of samples) [1]: 35
SENSITIVES (number of samples) [1]: 27

CN(c1ccc(Cl)cc1)c1cc[n+](Cc2ccc(-c3ccc(C[n+]4ccc(N(C)c5ccc(Cl)cc5)c5ccccc54)cc3)cc2)c2ccccc12.[Br-].[Br-] [RSM-932A, 1,1′-(biphenyl-4, 4′-diylmethylene) bis[4-(4-chloro-N-methylanilino-)quinolinium]dibromide]
cytotoxicity, percentage of cell death ([2]; SW620, combination: ChoKI pre-treatment 2 hours, then TRAIL 24 h): 9%
DUT (Deoxyuridine triphosphatase) gene expression ([3]; H460, 9 h): −1.12
RRM2 (Ribonucleotide Reductase) gene expression ([3]; H460, 9 h): −1.39
TYMS (Thymidylate synthetase) gene expression ([3]; H460, 9 h): −1.03
UPP1 (Uridine phosphorylase 1) gene expression ([3]; H460, 9 h): +1.83
DUT (Deoxyuridine triphosphatase) gene expression ([3]; H460, 24 h): −2.08
RRM2 (Ribonucleotide Reductase) gene expression ([3]; H460, 24 h): −3.69
TYMS (Thymidylate synthetase) gene expression ([3]; H460, 24 h): −2.73
UPP1 (Uridine phosphorylase 1) gene expression ([3]; H460, 24 h): +2.48
DUT expression [4]: DR
RRM expression [4]: DR
TYM expression [4]: DR
UPP expression [4]: UR
DUT expression [5]: DR
RRM expression [5]: DR
TYM expression [5]: DR
UPP expression [5]: UR
DUT expression [6]: DR
RRM expression [6]: DR
TYM expression [6]: DR
UPP expression [6]: UR
Statistical significance (p), tumour growth [7, 13]: 0.157

CCCCCCCCCCCCCC(=O)N[C@H](C)[C@@H](O)c1ccccc1 [DEM, (1S,2R)-N-myristoylamino-phenylpropanol-1, reference compound]
IC 50 ([8]; combinations: pre-treated with ceramidase inhibitor for three hours, then ChoK inhibitor, read-out: IC50 (72 h)): 31 µM

CCCCCCCCCCCCCC(=O)N[C@H](CO)[C@H](O)c1ccc([N+](=O)[O-])cc1 [CAY, (1R,2R)-N-myristoylamino-4′-nitro-phenylpropandio1-1,3, reference compound]
IC 50 ([8]; Homo sapiens, NCI-H460, combinations: pre-treated with ceramidase inhibitor for three hours, then ChoK inhibitor, read-out: IC50 (72 h)): 28 µM

Nc1ccn([C@@H]2O[C@H](CO)[C@@H](O)C2(F)F)c(=O)n1 [Gemcitabine, gemcitabine]
RESISTANT (number of samples) [1]: 34
SENSITIVES (number of samples) [1]: 18

CCC1=C[C@@H]2CN(C1)Cc1c([nH]c3ccccc13)[C@@](C(=O)OC)(c1cc3c(cc1OC)N(C)[C@H]1[C@@](O)(C(=O)OC)[C@H](OC(C)=O)[C@]4(CC)C=CCN5CC[C@]31[C@@H]54)C2 [Vinolrelbine, vinorelbine]
RESISTANT (number of samples) [1]: 24
SENSITIVES (number of samples) [1]: 15

N.N.[Cl][Pt][Cl] [Cisplatin, cisplatin, reference compound]
RESISTANT (% of samples) [1]: 50%
RESISTANT (number of samples) [1]: 31
SENSITIVES (% of samples) [1]: 50%
SENSITIVES (number of samples) [1]: 31
IC 50 [9]: 2 µg/mL
IC 50 [10]: 4.5 µg/mL
IC 50 [11]: 1.5 µg/mL
IC 50 [8]: 5 µg/mL
Statistical significance (p), tumour growth ([7]; FIG. 7A, single agents): 0.3
Statistical significance (p), tumour growth [7, 13]: 0.441

B1: TRAIL: extracellular domain of human TRAIL (amino acids 95-281) (protein, listed as Homo sapiens)
chain: TSEETISTVQEKQQNISPLVRERGPQRVAAHITGTRGRSNTLSSPNSKNEKALGRKINSWESSRSGHSFLSNLHLRNGELVIHEKGFYYIYSQTYFRFQEEIKENTKNDKQMVQYIYKYTSYPDPILLMKSARNSCWSKDAEYGLYSIYQGGIFELKENDRIFVSVTNEHLIDMDHEASFFGAFLVG
sensitivity to TRAIL ([2]; SW620, FIG. 8B): nearly resistant
apoptosis [12]: 35%
